# Laboratory results from publication PMC12291464, “Modifying Antifungal Peptides as Safe Food Preservatives” (Journal of Agricultural and Food Chemistry, 2025).
# “Also recorded” adds a separate entry of the source. Read-outs that look alike come from different tables or passages of the source. Residues, ends and D or L forms follow the SMILES beside them.
# Columns and labels:
# [1] = system: filamentous fungi conidia (spores); test: Fungicidal assay (CFU log reduction); format: cell-based; settings: 8 μM H2O2
# Method: A 10^4 CFU/mL conidia load was incubated in yeast extract (YE) medium at 37 °C for and 25 °C for and at 200 rpm for 4 h, and 100 μL was transferred to 900 μL of PBS with peptide (final conidia load = 10^3 CFU/mL). The negative control had no peptides, and for the positive control, we used H2O2 (final concentration of 8 μM). The treated conidia were incubated for an additional 4 h at the same temperature at 200 rpm. Once the second incubation was over, the inoculum suspension was diluted, and 100 μL of both the original and the dilution was spread on Petri plates with PDA with tetracycline (10 μg/mL) and chloramphenicol (25 μg/mL) medium to exclude the growth of bacteria. The plates were incubated at matching temperatures depending on the strain. After 48 h, the CFU/mL was calculated; CFU/mL = number of counted CFU × 10^–n (n = serial dilution).
# 2 Fungicidal activity of BP100 and P-113 and their derivatives. Spores were counted using a hemocytometer and diluted to […]. After 4 h of incubation with the selected peptides in two different concentrations (25 and 100 μM), samples were diluted and both original and diluted samples were plated. Colonies were counted after 48 h of incubation and are presented as the log reduction of CFU/mL. […] The experiments were repeated 3 times (biological repeats) in triplicate (average ± SEM). […]
# chymotrypsin = chymotrypsin (Bos taurus, UniProt P00766); test: Digestion examination of the peptides by chymotrypsin
# Method: Peptides were dissolved in 1 mL of 100 μM NH4HCO3 to a final concentration of 4 mM, followed by the addition of 1 μL chymotrypsin (1 mg/mL), and were incubated at 37 °C and 150 rpm. At each time point, 75 μL of the solution was transferred to 90 °C for inactivation of the enzyme. After the peptides were frozen in liquid nitrogen and lyophilized, they were dissolved in DMSO and were analyzed in HPLC using Analytic Phenomenex Luna C18 (5 μm, 4.6 × 250 mm) with standard RP-HPLC conditions. The area under curve (AUC) was calculated at each time point and normalized to time = 0.
# 4 Peptide’s secondary structure and digestibility. (A) CD spectra of the peptides (50 μM) in DDW was measured using a J-1100 spectropolarimeter (Jasco), with the following parameters: wavelength range of 190–260 nm, bandwidth of 1 nm, data pitch of 0.1 nm, and three accumulations. A baseline spectrum was recorded using a 0.1 cm quartz cuvette filled with DDW and subtracted from the peptide spectrum to obtain the corrected CD spectrum. […] The area under the curve (AUC) was calculated at each time point and normalized to t = 0. The y axis ranges from 100%, meaning not digested at all, to 0%, meaning fully digested.
# MRSA = system: MRSA
# Method: (§1) A1163 was grown on potato dextrose agar (PDA) medium at 37 °C for 5 days, and then the conidia were scraped and suspended in PBS with 0.025% (v/v) Tween 20, counted using a hemocytometer, and kept at 4 °C. isolated from peanuts and Pe21 (both kindly provided by Dr. Edward Sionov, ARO, Israel) were grown on PDA medium at 25 °C for 5 days, and then the conidia were scraped and suspended in PBS with 0.025% Tween 20 and kept at 4 °C. RP and methicillin-resistant (MRSA) were grown on LB agar plates, and individual colonies were picked and grown in Mueller–Hinton (MH) broth overnight at 37 °C. was grown on PDA medium at 30 °C, and individual colonies were picked and grown in yeast extract peptone dextrose (YPD) media overnight at 30 °C. All fungal and bacteria strains were maintained at −80 °C in 50% (v/v) glycerol stock.
# (§2) For filamentous fungi strains, serial dilutions of 100 μL ranged from 100 to 0.78 μM for each peptide in a 96 well plate using RPMI1640 with 165 μM MOPS. A total of 80 μL of inoculum was suspended with a conidia load of 5 × 10^3 CFU/mL (final density of 2 × 10^3 CFU/mL), and 20 μL of resazurin was diluted in RPMI1640 solution of 0.02% [final concentration of 0.0002% (w/v)]. In the control, 100 μL of treatment was replaced by the same volume with medium, while the negative control was 180 μL of the medium and 20 μL of resazurin solution. Plates were incubated at 37 °C for and 25 °C for and for 24 h. The results were quantified by measuring absorbance at 570 nm with a microplate reader (Tecan). The mean absorbance values were used in subsequent calculations. The growth of resazurin reduction and growth inhibition was calculated using the following normalization: % growth=100−% reduction=abs of test agent−abs of untreated control/abs of reduced resazurin−abs of untreated control The MIC was defined as the lowest concentration of the peptide that inhibited fungal growth by 90%, allowing for only 10% of the normal growth. For bacterial and yeast strains studies, serial dilutions of 100 μL ranged from 100 to 0.78 μM for each peptide in a 96 well plate using MH media for bacteria and YPD for yeast. A total of 100 μL of the microbe in suitable media (5 × 10^5 CFU/mL) was inoculated in each well. In the untreated well (e.g., control), 100 μL of treatment was replaced by the same volume with medium, while in the negative control, media were only without microbes and peptides. After 24 h of incubation at 37 °C for bacteria and 30 °C for yeast, plates were read at 595 nm and MIC was defined as the lowest concentration of peptide that reduced the growth of the microbe to 10% growth.
# E. coli = system: E. coli
# Method: as §1, §2
# A. fumigatus = settings: 24 h
# Method: as §1, §2
# A. Niger = settings: 24 h
# Method: as §1, §2
# P. expansum = settings: 24 h
# Method: as §1, §2
# HEK cells = test: Toxicity assay on the human cell line (MTT); format: cell-based; settings: 100 to 0.78 μM peptide, 24 h, read at 595 nm, normalized to untreated cells; 3 biological repeats in triplicates
# Method: HEK cells were grown at 37 °C with 5% CO2 in Deulbecco’s modifield Eagle’s medium (DMEM, Sigma) with 2 mM L-glutamine, 1% (v/v) penicillin and streptomycin (Penstrep), and 20% (v/v) fetal bovine serum. The day before the experiment, cells were detached by gentle scraping, counted with a hemocytometer to a concentration of 10^6 cells/mL, and seeded into a 96-well microplate (Nunc, Thermo Scientific). The following day, serial dilutions from 100 to 0.78 μM for each peptide were introduced to the cells with DMEM lacking phenol red for 24 h. Later, 50 μL of 3-(4,5-dimethylthiazol-2-yl)-2,5-diphenyltetrazolium bromide (MTT, 0.5 mg/mL) was added to the wells for 2 h of incubation. At the end, 100 μL of DMSO was added for 30 min at 37 °C and 200 rpm, and the plate was read at 595 nm and normalized to the untreated cells.
# Peptide Concentration [µM] Peptide Concentration [µM]
# Supplementary 3. Cytotoxicity examination. HEK cells were cultured in DMEM with L-glutamine, PenStrep, and fetal bovine serum at 37°C and 5% CO2. The day before the experiment, cells were detached, counted (10^6 cells/ml), and seeded into a 96-well plate. […] Cell viability was assessed using the MTT assay; after adding 50µl of MTT and incubating for 2 hours, 100µl DMSO was added for 30minutes at 37 °C, 200rpm. Next, absorbance was measured at 595nm and normalized to untreated controls. […]
# [2] = MH media, 5 × 10^5 CFU/mL, 24 h at 37 °C, read at 595 nm, MIC = growth reduced to 10%, average ± SE, 3 biological repeats in triplicates
# [3] = RPMI1640 with MOPS, resazurin, absorbance 570 nm, MIC = lowest concentration inhibiting growth by 90%, average ± SE, 3 biological repeats in triplicates
Structure (SMILES),"fungicidal activity, positive control [1]",digestion by chymotrypsin (chymotrypsin),"MIC Values, MRSA (MRSA; [2]) [µM]","MIC Values, E. coli (E. coli; [2]) [µM]","MIC Values, A. fumigatus (A. fumigatus; [3]) [µM]","MIC Values, A. Niger (A. Niger; [3]) [µM]","MIC Values, P. expansum (P. expansum; [3]) [µM]",cytotoxicity against HEK mammalian cells (MTT assay) (HEK cells),"digestion by chymotrypsin (chymotrypsin; peptide 4 mM in 100 μM NH4HCO3, 1 μL chymotrypsin (1 mg/mL), 37 °C, 150 rpm, analytical RP-HPLC C18, AUC normalized to t = 0)","MIC Values, MRSA (MRSA; 24 h) [µM]","MIC Values, E. coli (E. coli; 24 h) [µM]","MIC Values, A. fumigatus (A. fumigatus) [µM]","MIC Values, A. Niger (A. Niger) [µM]","MIC Values, P. expansum (P. expansum) [µM]"
OO [H2O2],completely eradicated,,,,,,,,,,,,,
CC[C@H](C)[C@H](NC(=O)[C@H](CCCCN)NC(=O)[C@H](CCCCN)NC(=O)[C@H](Cc1ccccc1)NC(=O)[C@H](CC(C)C)NC(=O)[C@H](CCCCN)NC(=O)[C@@H](N)Cc1c[nH]c2ccccc12)C(=O)N[C@@H](CC(C)C)C(=O)N[C@@H](CCCCN)C(=O)N[C@@H](Cc1ccc(O)cc1)C(=O)N[C@@H](CC(C)C)C(N)=O [BP100 K1W],,fully degraded within a short time frame,3 ± 0,2 ± 0,8 ± 2,10 ± 2,6 ± 0,low to no cytotoxicity,,,,,,
C[C@H](N)C(=O)N[C@@H](CCCCN)C(=O)N[C@@H](CCCNC(=N)N)C(=O)N[C@@H](Cc1c[nH]cn1)C(=O)N[C@@H](Cc1c[nH]cn1)C(=O)NCC(=O)N[C@@H](Cc1ccc(O)cc1)C(=O)N[C@@H](CCCCN)C(=O)N[C@@H](CCCNC(=N)N)C(=O)N[C@@H](CCCCN)C(=O)N[C@@H](Cc1ccccc1)C(=O)N[C@@H](Cc1c[nH]cn1)C(=O)N[C@@H](C)C(=O)N[C@@H](CCCCN)C(=O)N[C@@H](CCCNC(=N)N)C(=O)N[C@@H](Cc1c[nH]cn1)C(=O)N[C@@H](Cc1c[nH]cn1)C(=O)NCC(=O)N[C@@H](Cc1ccc(O)cc1)C(=O)N[C@@H](CCCCN)C(=O)N[C@@H](CCCNC(=N)N)C(=O)N[C@@H](CCCCN)C(=O)N[C@@H](Cc1ccccc1)C(=O)N[C@@H](Cc1c[nH]cn1)C(=O)N[C@@H](C)C(=O)N[C@@H](CCCCN)C(=O)N[C@@H](CCCNC(=N)N)C(=O)N[C@@H](Cc1c[nH]cn1)C(=O)N[C@@H](Cc1c[nH]cn1)C(=O)NCC(=O)N[C@@H](Cc1ccc(O)cc1)C(=O)N[C@@H](CCCCN)C(=O)N[C@@H](CCCNC(=N)N)C(=O)N[C@@H](CCCCN)C(=O)N[C@@H](Cc1ccccc1)C(=O)N[C@@H](Cc1c[nH]cn1)C(N)=O [P-113 Triple] (H-AKRHHGYKRKFHAKRHHGYKRKFHAKRHHGYKRKFH-NH2),,,,,,,,low to no cytotoxicity,fully degraded within a short time frame,25 ± 0,42 ± 14,5 ± 2,16 ± 4,5 ± 2
CC[C@H](C)[C@H](NC(=O)[C@H](CCCCN)NC(=O)[C@H](CCCCN)NC(=O)[C@H](Cc1ccccc1)NC(=O)[C@H](CC(C)C)NC(=O)[C@H](CCCCN)NC(=O)[C@H](CCCCN)NC(=O)[C@H](CC(C)C)NC(=O)[C@H](Cc1ccc(O)cc1)NC(=O)[C@H](CCCCN)NC(=O)[C@H](CC(C)C)NC(=O)[C@@H](NC(=O)[C@H](CCCCN)NC(=O)[C@H](CCCCN)NC(=O)[C@H](Cc1ccccc1)NC(=O)[C@H](CC(C)C)NC(=O)[C@H](CCCCN)NC(=O)[C@@H](N)CCCCN)[C@@H](C)CC)C(=O)N[C@@H](CC(C)C)C(=O)N[C@@H](CCCCN)C(=O)N[C@@H](Cc1ccc(O)cc1)C(=O)N[C@@H](CC(C)C)C(N)=O [BP100 Double] (H-KKLFKKILKYLKKLFKKILKYL-NH2),,less prone for digestions; also recorded: not digested,>200,>200,3 ± 0.5,5 ± 1,2 ± 0,,,,,,,
